“And” between values parts separate entries of the source, which are not always exact repeats. Equal entries are not always repeated.
Conditions: for speed of sound / mass density / viscosity / vapor or sublimation pressure: Liquid; for speed of sound: Frequency=3 MHz, Single path-length method; for mass density: Vibrating tube method; for surface tension liquid-gas: Drop volume; for viscosity: Capillary tube (Ostwald / Ubbelohde) method; for vapor or sublimation pressure: Ebulliometric method (Recirculating still)

CCc1ccco1 [2-ethylfuran]
Conditions | mass density | speed of sound [m/s] | viscosity [mPa·s]
313.15 K, 100 kPa | 882.52 kg/m3 and 882.49 kg/m3 | 1129.2 | –
313.15 K, 2000 kPa | 884.62 kg/m3 | – | –
313.15 K, 5000 kPa | 887.63 kg/m3 | – | –
313.15 K, 7000 kPa | 889.75 kg/m3 | – | –
313.15 K, 10000 kPa | 892.61 kg/m3 | – | –
313.15 K, 15000 kPa | 897.4 kg/m3 | – | –
313.15 K, 20000 kPa | 901.8 kg/m3 | – | –
313.15 K, 25000 kPa | 906.18 kg/m3 | – | –
313.15 K, 30000 kPa | 910.18 kg/m3 | – | –
313.15 K, 35000 kPa | 914.06 kg/m3 | – | –
313.15 K, 40000 kPa | 917.85 kg/m3 | – | –
313.15 K, 45000 kPa | 921.58 kg/m3 | – | –
313.15 K, 50000 kPa | 925.04 kg/m3 | – | –
313.15 K, 55000 kPa | 928.5 kg/m3 | – | –
313.15 K, 60000 kPa | 931.93 kg/m3 | – | –
313.15 K, 65000 kPa | 935.06 kg/m3 | – | –
315.65 K, 100 kPa | 879.73 kg/m3 | 1118.1 | 0.4049
318.15 K, 100 kPa | 876.92 kg/m3 and 876.88 kg/m3 | 1107.4 | 0.3962
318.15 K, 2000 kPa | 879.13 kg/m3 | – | –
318.15 K, 5000 kPa | 882.2 kg/m3 | – | –
318.15 K, 7000 kPa | 884.37 kg/m3 | – | –
318.15 K, 10000 kPa | 887.44 kg/m3 | – | –
318.15 K, 15000 kPa | 892.29 kg/m3 | – | –
318.15 K, 20000 kPa | 896.91 kg/m3 | – | –
318.15 K, 25000 kPa | 901.27 kg/m3 | – | –
318.15 K, 30000 kPa | 905.42 kg/m3 | – | –
318.15 K, 35000 kPa | 909.5 kg/m3 | – | –
318.15 K, 40000 kPa | 913.4 kg/m3 | – | –
318.15 K, 45000 kPa | 917.1 kg/m3 | – | –
318.15 K, 50000 kPa | 920.67 kg/m3 | – | –
318.15 K, 55000 kPa | 924.18 kg/m3 | – | –
318.15 K, 60000 kPa | 927.71 kg/m3 | – | –
318.15 K, 65000 kPa | 930.91 kg/m3 | – | –
320.65 K, 100 kPa | 874.11 kg/m3 | 1096.5 | 0.3885
323.15 K, 100 kPa | 871.29 kg/m3 and 871.23 kg/m3 | 1085.6 | 0.3794
323.15 K, 2000 kPa | 873.56 kg/m3 | – | –
323.15 K, 5000 kPa | 876.77 kg/m3 | – | –
323.15 K, 7000 kPa | 878.96 kg/m3 | – | –
323.15 K, 10000 kPa | 882.17 kg/m3 | – | –
323.15 K, 15000 kPa | 887.15 kg/m3 | – | –
323.15 K, 20000 kPa | 891.93 kg/m3 | – | –
323.15 K, 25000 kPa | 896.47 kg/m3 | – | –
323.15 K, 30000 kPa | 900.65 kg/m3 | – | –
323.15 K, 35000 kPa | 904.8 kg/m3 | – | –
323.15 K, 40000 kPa | 908.8 kg/m3 | – | –
323.15 K, 45000 kPa | 912.67 kg/m3 | – | –
323.15 K, 50000 kPa | 916.35 kg/m3 | – | –
323.15 K, 55000 kPa | 919.97 kg/m3 | – | –
323.15 K, 60000 kPa | 923.48 kg/m3 | – | –
323.15 K, 65000 kPa | 926.81 kg/m3 | – | –
325.65 K, 100 kPa | 868.46 kg/m3 | 1074.8 | 0.3706
328.15 K, 100 kPa | 865.62 kg/m3 and 865.59 kg/m3 | 1063.8 | 0.3619
328.15 K, 2000 kPa | 867.92 kg/m3 | – | –
328.15 K, 5000 kPa | 871.27 kg/m3 | – | –
328.15 K, 7000 kPa | 873.57 kg/m3 | – | –

Conditions | surface tension liquid-gas [mN/m] | vapor or sublimation pressure [kPa]
315.65 K | 22.66 | –
317.62 K | – | 18.64
318.15 K | 22.3 | –
320.45 K | – | 20.98
320.65 K | 22.07 | –
322.48 K | – | 22.8
323.15 K | 21.77 | –
324.89 K | – | 25.18
325.65 K | 21.4 | –
327.06 K | – | 27.46
328.15 K | 21.08 | –

Reference: the NIST ThermoML archive (doi:10.1021/acs.jced.8b00153)
